# From paper PMC5943319, “Cloning and characterization of a pyrethroid pesticide decomposing esterase gene, Est3385, from Rhodopseudomonas palustris PSB-S” (Scientific Reports, 2018)
# Test system: Est3385
# Assay: GC quantification of residual substrate, Michaelis-Menten
# Format: biochemical, Rhodopseudomonas palustris
# Settings: GST fusion; substrate 10-50 µg/ml (below the Km); pH and temperature of kinetics not stated
smiles,measurement,value
CC1(C)C(C(=O)OC(C#N)c2cccc(Oc3ccccc3)c2)C1(C)C (stereo not shown) [fenpropathrin],Km,734 ± 13 µM
